The structures appear in SMILES notation.

Data set [1] deals with T1, Tyrosine-protein phosphatase non-receptor type 1 (Homo sapiens, UniProt P18031).
T1 sequence (P18031 whole entry): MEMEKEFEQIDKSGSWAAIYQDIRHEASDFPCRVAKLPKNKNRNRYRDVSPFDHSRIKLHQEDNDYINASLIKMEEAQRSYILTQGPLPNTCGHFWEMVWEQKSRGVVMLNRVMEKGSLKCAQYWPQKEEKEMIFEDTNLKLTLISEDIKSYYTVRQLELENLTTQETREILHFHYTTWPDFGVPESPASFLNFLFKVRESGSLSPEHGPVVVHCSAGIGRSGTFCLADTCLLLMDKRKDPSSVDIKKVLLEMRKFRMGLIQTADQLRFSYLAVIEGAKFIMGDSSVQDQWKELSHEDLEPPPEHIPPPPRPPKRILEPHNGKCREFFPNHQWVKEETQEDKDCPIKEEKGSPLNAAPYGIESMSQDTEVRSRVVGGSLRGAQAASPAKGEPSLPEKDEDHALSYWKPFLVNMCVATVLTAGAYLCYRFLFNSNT
Briefly: Inhibition of PTP1B (unknown origin) using nitrophenyl phosphate as substrate after 30 mins by spectrophotometry.

The test system of a further data set is A-431. Briefly: Cytotoxicity against human A431 cells at 100 uM by SRB method. The following applies: a-431, 100 µM. The class given is cell-based.

In data set [1], `CC1=CC(C)(C)N=C2C[C@@]3(C)CC(=O)C(C(C)C)=CC3=C12` had an IC50 of 9.97 µM. Further, the Activity entry in the data set on A-431 is “Non-toxic”.
In data set [1], `CC1=CC(C)(C)N=C2C[C@@]3(C)CC(=O)C(C(C)C)=C3C=C12` registered a half-maximal inhibitory concentration (IC50) of 9.71 µM. Also, in the data set with A-431, the Activity result was “Non-toxic”.
In data set [1], `CC1=CC(C)(C)N=C2C[C@]3(C)C(=O)C(C)(C)N=C3C(C)=C12` came in with an IC50 of 6.44 µM. In the data set on A-431, the Activity result is on record as “Non-toxic”.

The values are drawn from ChEMBL document CHEMBL3232899, “Highly conjugated norditerpenoid and pyrroloquinoline alkaloids with potent PTP1B inhibitory activity from Nigella glandulifera” (J Nat Prod, 2014).
